Test results reported in patent US20150087723A1, “MICROBIAL COMPOSITION” (Rohm and Haas Company, priority 2011, published 2015).
Read-outs that look alike come from different tables or passages of the source.

Columns and labels:
[1] = tested on: Escherichia coli (E. coli—ATCC #10536); test: Automated assessment of efficacy in model surfactant base (2.85% sodium cocoyl glycinate + 1.85% sodium lauroamphoacetate, pH 10), 15 seconds exposure, OD450/OD590 readout; assay type: cell-based; details: for No. of replicates showing growth (out of 4) / Δ OD 450 nm = OD450 (time = 16 hours) - OD450 (time zero), Mean / Δ OD 590 nm OD590 (time = 16 hours) - OD590 (time zero), Mean: model surfactant solution; for MBC: Escherichia coli, ATCC10536, 15 s; for Phenol MBC %(w/v): phenol alone, model surfactant, E. Coli
Method: Solutions were prepared such that the concentrations of the surfactant components and test actives were 1.1×x the final desired concentration in order to allow for dilution with the bacterial inoculum in the test. The solutions were manually adjusted to pH 10.0 by drop wise addition of sodium hydroxide solution, as measured with a phi meter at ambient temperature.
Tests were conducted using standard microtiter plate assays using an automated liquid handling system, 270 μl of the surfactant test solution was pipetted into each well of the microtitre plate and 30 μl of the bacterial suspension was then added. After exactly 15 seconds of bacterial exposure, a 30 μl volume of bacterial cells was withdrawn and transferred to 270 μl of D/E quench solution. After 5 minutes in the D/E quench, the optical density (OD) was measured for each plate in turn at two specific wavelengths (450 nm and 590 nm). These provide a dual check of antimicrobial activity, as the OD450 reading is specific for the yellow colour of D/E quench when bacterial growth is observed, whereas OD590 is specific for the initial purple colour of the D/E quench which is retained if no bacterial growth is observed. After the time zero OD measurements, plates were then incubated at 37° C. overnight (16 hours) before repeating the OD measurements. Delta OD values were calculated by subtracting […] the initial value at time zero. Bacterial growth is observed as an increase in OD450 and a decrease in ΔOD590. To identify antibacterially efficacious systems (those preventing appreciable bacterial growth after incubation), the following threshold changes in OD readings have been adopted: if (1), OD450 increases by less than 0.2 absorbance unit on incubation and (2). OD590 decreases by less than 0.35 unit on incubation. Conversely, where OD450 increases by more than 0.2 AU and OD590 decreases by more than 0.35 unit after incubation, corresponding to a colour shift from purple to yellow, the test system allows bacterial growth and is not deemed efficacious. Four replicate measurements in the same plate have been made for each test system. The number of replicate wells showing either bacterial growth or no growth is also readily assessed by eye by following the colour change.
Dose responses for individual components and binary mixtures of actives at a used concentration ratio were generated by sequential dilution of liquors with further surfactant solution to obtain a series of endpoints.
In some selected cases, the combinations were also tested at the weight ratio 1:1.

[2] = tested on: Escherichia coli (E. coli—ATCC #10536); test: Synergy test: high resolution MBC microtiter plate assay, phosphate buffer containing 35% dipropylene glycol, 15 seconds contact; assay type: cell-based; details: E. coli 10536; for SI (Synergy Index = Qa/QA + Qb/QB): at Qa and Qb, <1 synergy, 1 additivity, >1 antagonism; for Qa: MBC of the first component (A) acting alone (QA): component alone (Qb = 0), complete kill in 15 seconds
Text: One measure of synergy is -the industrially accepted method described by Kull, F. C.; Eisman, P. C.; Sylwestrowicz, H. D. and Mayer, R. L., in Applied Microbiology 9:538-541 (1961), using the ratio determined by the formula:
Qa/QA+Qb/QB=Synergy Index (“SI”)
wherein: QA=concentration of compound A (first component) in percent, acting alone, which produced an end point (MBC of Compound A). Qa =concentration of compound A in percent, in the mixture, which produced an end point. QB=concentration of compound B (second component) in percent, acting alone, which produced an end point (MBC of Compound B). Qb=concentration of compound B in percent, in the mixture, which produced an end point.
When the sum of Qa/QA and Qb/QB is greater than one, antagonism is indicated. […] The lower the SI, the greater is the synergy shown by that particular mixture. The minimum biocidal concentration (MBC) of a microbicide is the lowest concentration tested under a specific set of conditions that provides complete kill of the tested microorganisms.
Synergy tests were-conducted using standard microtiter plate assays with, phosphate buffer containing 35% dipropylene glycol (DPG). In this method, a wide range of combinations of chemicals was tested by conducting high resolution MBC assays of Component (A) in the presence of various concentrations of Component (B). High resolution MBCs were determined by adding varying amounts of microbicide to one column of a microtiter plate and doing subsequent ten-fold dilutions using an automated liquid handling system to obtain a series of closely spaced endpoints. The MBC plate was inoculated one column at a time with the test microorganism. An aliquot of the inoculated well was transferred at 15 seconds to a plate containing a neutralizing agent (D/E Neutralizing Broth), mixed and held for 5 minutes before being transferred to a growth plate containing trypticase soy broth (TSB). The TSB plate was incubated at 37° C. and read for the presence/absence of growth at 24 hours. The lowest level tested that provided complete kill (as evidenced by no growth in the microtitre plate) of the test organisms in 15 seconds is the minimum biocidal concentration (MBC).
The synergy of the combinations of the present invention was determined against a bacterium, Escherichia coli (E. coli—ATCC #10536), at a concentration of approximately 1×10^8 bacteria per mL. This microorganism is representative of natural contaminants in many consumer and industrial applications.

[3] = in 2.85% sodium cocoyl glycinate + 1.85% sodium lauroamphoacetate solution at pH 10, E. coli, read-out: MBC (% w/v)

| Structure (SMILES) | No. of replicates showing growth (out of 4) ([1]; component alone at 0.05% w/v) | Δ OD 450 nm = OD450 (time = 16 hours) - OD450 (time zero), Mean ([1]; component alone at 0.05% w/v) | Δ OD 590 nm OD590 (time = 16 hours) - OD590 (time zero), Mean ([1]; component alone at 0.05% w/v) | SI (Synergy Index = Qa/QA + Qb/QB) [2] | Qa: MBC of the first component (A) acting alone (QA) [2] | MBC [1, 3] | No. of replicates showing growth (out of 4) ([1]; component alone at 0.2% w/v) | Δ OD 450 nm = OD450 (time = 16 hours) - OD450 (time zero), Mean ([1]; component alone at 0.2% w/v) | Δ OD 590 nm OD590 (time = 16 hours) - OD590 (time zero), Mean ([1]; component alone at 0.2% w/v) | No. of replicates showing growth (out of 4) ([1]; component alone at 0.125% w/v) | Δ OD 450 nm = OD450 (time = 16 hours) - OD450 (time zero), Mean ([1]; component alone at 0.125% w/v) | Δ OD 590 nm OD590 (time = 16 hours) - OD590 (time zero), Mean ([1]; component alone at 0.125% w/v) | No. of replicates showing growth (out of 4) ([1]; component alone at […] w/v) | Δ OD 450 nm = OD450 (time = 16 hours) - OD450 (time zero), Mean ([1]; component alone at […] w/v) | Δ OD 590 nm OD590 (time = 16 hours) - OD590 (time zero), Mean ([1]; component alone at […] w/v) | further results |
| --- | --- | --- | --- | --- | --- | --- | --- | --- | --- | --- | --- | --- | --- | --- | --- | --- |
| CCCc1ccccc1O [2-propyphenol] | 4 out of 4 | −1.43 | 0.46 |  |  |  |  |  |  |  |  |  |  |  |  |  |
| CCC(C)c1ccccc1O (centres unmarked) [2-sec-butylphenol] | 4 out of 4 | −1.50 | 0.30 | 1.00 | 0.2 weight % | 1750 µg/mL | 0 out of 4 | −0.01 | 0.09 |  |  |  |  |  |  | Phenol MBC %(w/v) [1]: 0.175 %(w/v) |
| Cc1ccc(C(C)(C)C)c(O)c1 [2-tert-butyl-5-methylphenol] | 4 out of 4 | −1.50 | 0.29 |  |  | 2000 µg/mL |  |  |  | 4 out of 4 | −1.45 | 0.32 | 4 out of 4 | −1.47 | 0.28 | No. of replicates showing growth (out of 4) ([1]; component alone at 0.175% w/v): 4 out of 4; Δ OD 450 nm = OD450 (time = 16 hours) - OD450 (time zero), Mean ([1]; component alone at 0.175% w/v): −1.30; Δ OD 590 nm OD590 (time = 16 hours) - OD590 (time zero), Mean ([1]; component alone at 0.175% w/v): 0.47 |
| CC(C)(C)c1ccccc1O [2-tert-butylphenol] | 4 out of 4 | −1.58 | 0.22 | 1.00 |  | 2000 µg/mL |  |  |  | 4 out of 4 | −1.48 | 0.30 | 4 out of 4 | −1.50 | 0.28 | No. of replicates showing growth (out of 4) ([1]; component alone at 0.175% w/v): 4 out of 4; Δ OD 450 nm = OD450 (time = 16 hours) - OD450 (time zero), Mean ([1]; component alone at 0.175% w/v): −1.08; Δ OD 590 nm OD590 (time = 16 hours) - OD590 (time zero), Mean ([1]; component alone at 0.175% w/v): 0.57; Phenol MBC %(w/v) [1]: 0.2 %(w/v) |
| Cc1cc(O)cc(C(C)C)c1 [3-isopropyl-5-methylphenol] |  |  |  | 1.00 |  |  |  |  |  |  |  |  |  |  |  |  |
| CCCc1cccc(O)c1 [3-n-propylphenol] |  |  |  | 1.00 | 0.5 weight % | > 2000 µg/mL | 4 out of 4 | −0.57 | 0.56 | 4 out of 4 | −0.59 | 0.57 | 4 out of 4 |  |  |  |
| CC(C)(C)c1cccc(O)c1 [3-tert-butylphenol] |  |  |  | 1.00 | 0.3 weight % | > 2000 µg/mL | 4 out of 4 | −0.47 | 0.64 | 4 out of 4 | −0.45 | 0.65 | 4 out of 4 | −0.43 | 0.65 |  |
| Cc1cc(O)ccc1C(C)C [4-isopropyl-3-methylphenol] | 4 out of 4 | −1.52 | 0.25 | 1.00 |  | > 2000 µg/mL | 4 out of 4 | −1.41 | 0.36 |  |  |  | 4 out of 4 | −1.53 | 0.27 | No. of replicates showing growth (out of 4) ([1]; component alone at 0.1% w/v): 4 out of 4; Δ OD 450 nm = OD450 (time = 16 hours) - OD450 (time zero), Mean ([1]; component alone at 0.1% w/v): −1.50; Δ OD 590 nm OD590 (time = 16 hours) - OD590 (time zero), Mean ([1]; component alone at 0.1% w/v): 0.24 |
| CCCCc1ccc(O)cc1 [4-n-butylphenol] |  |  |  | 1.00 | 0.2 weight % |  |  |  |  |  |  |  |  |  |  |  |
| CCCc1ccc(O)cc1 [4-propylphenol] |  |  |  | 1.00 |  | > 2000 µg/mL | 4 out of 4 | −1.49 | 0.43 | 4 out of 4 | −1.56 | 0.37 | 4 out of 4 |  |  |  |
| CCC(C)c1ccc(O)cc1 (centres unmarked) [4-sec-butylphenol] |  |  |  | 1.00 | 0.2 weight % | > 2000 µg/mL | 4 out of 4 | −0.56 | 0.59 | 4 out of 4 | −0.56 | 0.60 | 4 out of 4 | −0.53 | 0.60 | No. of replicates showing growth (out of 4) ([1]; component alone at 0.175% w/v): 4 out of 4; Δ OD 450 nm = OD450 (time = 16 hours) - OD450 (time zero), Mean ([1]; component alone at 0.175% w/v): −0.54; Δ OD 590 nm OD590 (time = 16 hours) - OD590 (time zero), Mean ([1]; component alone at 0.175% w/v): 0.59 |
| Cc1ccc(C(C)C)cc1O [5-isopropyl-2-methylphenol] |  |  |  | 1.00 |  |  | 4 out of 4 | −0.52 | 0.62 |  |  |  | 4 out of 4 |  |  | MBC ([1]; pH 10, read-out: MBC (% w/v)): > 2000 µg/mL; No. of replicates showing growth (out of 4) ([1]; component alone at 0.1% w/v): 4 out of 4; Δ OD 450 nm = OD450 (time = 16 hours) - OD450 (time zero), Mean ([1]; component alone at 0.1% w/v): −0.52; Δ OD 590 nm OD590 (time = 16 hours) - OD590 (time zero), Mean ([1]; component alone at 0.1% w/v): 0.62 |
